Measured values from patent US10597388B2, “Pyridazinone herbicides” (FMC CORPORATION, priority 2014, dated 2020).

Columns and labels:
Assay type in all cases: in vivo
[1] = tested on: chickweed (common chickweed, Stellaria media); test: Test C greenhouse herbicide test, postemergence
Procedure, shortened: (§1)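 Visual injury scores (0–100, where 100 means complete control) were assigned 13 to 15 d after postemergence application, by comparison with untreated plants. Treated seedlings stood 2 to 18 cm tall, at the 1- to 4-leaf stage.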

[2] = tested on: kochia (Kochia scoparia); test: Test C greenhouse herbicide test, postemergence
Procedure, shortened: as §1

[3] = tested on: oat, wild (wild oat, Avena fatua); test: Test C greenhouse herbicide test, postemergence
Procedure, shortened: as §1

[4] = tested on: blackgrass (Alopecurus myosuroides); test: Test A greenhouse herbicide test, postemergence; conditions: for Blackgrass plant response rating: 0 to 100 scale, 0 is no effect, 100 is complete control
Procedure, shortened: (§2)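 Plants grown in loam soil/sand blend pots were treated postemergence at 2 to 10 cm height, one- to two-leaf stage, with formulated test chemicals. After approximately 10 d in a greenhouse, injury was rated visually against untreated controls on a 0 to 100 scale (0 no effect, 100 complete control).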

[5] = tested on: galium (catchweed bedstraw, Galium aparine); test: Test A greenhouse herbicide test, postemergence; conditions: for Galium plant response rating: 0 to 100 scale, 0 is no effect, 100 is complete control
Procedure, shortened: as §2

[6] = tested on: barnyardgrass (Echinochloa crus-galli); test: Test A greenhouse herbicide test, pre- and postemergence
Procedure, shortened: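 Seeds sown in loam–sand blend got a preemergence directed soil spray of compound in non-phytotoxic solvent with surfactant. Postemergence treatment was given at 2–10 cm, one- to two-leaf stage. After ~10 d in greenhouse, injury was rated visually vs untreated controls, 0 (no effect) to 100 (complete control).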

[7] = tested on: sedge, umbrella (small-flower umbrella sedge, Cyperus difformis); test: Test B flooded paddy test; conditions: 250 g ai/ha, Flood; visual rating on scale of 0 to 100 where 0 is no effect and 100 is complete control; 13 to 15 d after treatment
Procedure, shortened: (§3)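 Plants at the 2-leaf stage were flooded to 3 cm above soil, and test compounds were applied directly into the paddy water, which was held at that depth throughout. After 13 to 15 d in a greenhouse, injury was rated visually against untreated controls on a 0–100 scale (0 no effect, 100 complete control).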

[8] = tested on: barnyardgrass (Echinochloa crus-galli); test: Test B flooded paddy test; conditions: 250 g ai/ha, Flood; visual rating on scale of 0 to 100 where 0 is no effect and 100 is complete control; 13 to 15 d after treatment
Procedure, shortened: as §3

[9] = tested on: ducksalad (Heteranthera limosa); test: Test B flooded paddy test; conditions: 250 g ai/ha, Flood; visual rating on scale of 0 to 100 where 0 is no effect and 100 is complete control; 13 to 15 d after treatment
Procedure, shortened: as §3

[10] = tested on: rice (Oryza sativa); test: Test B flooded paddy test; conditions: 250 g ai/ha, Flood; visual rating on scale of 0 to 100 where 0 is no effect and 100 is complete control; 13 to 15 d after treatment
Procedure, shortened: as §3

[11] = tested on: waterhemp_RES1 (ALS & Triazine resistant common waterhemp, Amaranthus rudis); test: Test E greenhouse herbicide test, postemergence
Procedure: At the same time, plants from these crop and weed species and also waterhemp_RES1, (ALS & Triazine resistant common waterhemp, Amaranthus rudis), and waterhemp_RES2, (ALS & HPPD resistant common waterhemp, Amaranthus rudis) were planted in pots containing Redi-Earth® planting medium (Scotts Company, 14111 Scottslawn Road, Marysville, Ohio 43041) comprising spaghnum peat moss, vermiculite, wetting agent and starter nutrients were treated with postemergence applications of test chemicals formulated in the same manner. Plants ranged in height from 2 to 18 cm for postemergence treatments (1- to 4-leaf stage). Treated plants and controls were maintained in a greenhouse for 14 to 21 d, after which time all species were compared to controls and visually evaluated. Plant response ratings, summarized in Table E, are based on a scale of 0 to 100 where 0 is no effect and 100 is complete control. A dash (-) response means no test result.

[12] = Postemergence, 31 g ai/ha, scale 0 to 100 (0 no effect, 100 complete control)
[13] = Postemergence, 62 g ai/ha, 0 to 100 scale (0 no effect, 100 complete control)
[14] = Postemergence, 250 g ai/ha, scale 0 to 100, 0 no effect, 100 complete control, 13 to 15 d
[15] = postemergence, 125 g ai/ha, scale 0 to 100, 0 no effect, 100 complete control
[16] = 125 g ai/ha, 0 to 100 scale where 0 is no effect and 100 is complete control
[17] = 500 g ai/ha, visual rating after approx. 10 d, 0 to 100 scale (0 no effect, 100 complete control)
[18] = Postemergence, 125 g ai/ha, 0 to 100 scale where 0 is no effect and 100 is complete control
[19] = Postemergence, 500 g ai/ha, visual rating after approx. 10 d, 0 to 100 scale (0 no effect, 100 complete control)
[20] = Preemergence, 125 g ai/ha, 0 to 100 scale where 0 is no effect and 100 is complete control
[21] = Preemergence, 500 g ai/ha, 0 to 100 scale where 0 is no effect and 100 is complete control
[22] = Postemergence, 31 g ai/ha, 0 to 100 scale (0 no effect, 100 complete control)
[23] = Postemergence, 125 g ai/ha, scale 0 to 100, 0 is no effect, 100 is complete control
[24] = postemergence, 62 g ai/ha, scale 0 to 100, 0 no effect, 100 complete control
[25] = Postemergence, 500 g ai/ha, 0 to 100 scale, 0 is no effect, 100 is complete control
[26] = Postemergence, 8 g ai/ha, scale 0 to 100 (0 no effect, 100 complete control)
[27] = Postemergence, 16 g ai/ha, scale 0 to 100 (0 no effect, 100 complete control)
[28] = 125 g ai/ha, visual rating after approx. 10 d, 0 to 100 scale (0 no effect, 100 complete control)

SMILES | Plant response rating, Chickweed [1, 12] | Plant response rating, Chickweed [1, 14] | Plant response rating, Kochia [2, 12] | Plant response rating, Kochia [2, 14] | Plant response rating, Oat, Wild [3, 12] | Plant response rating, Oat, Wild [3, 14] | Plant response rating, Blackgrass [4, 16] | Plant response rating, Blackgrass [4, 17] | Plant response rating, Galium [5, 16] | Plant response rating, Galium [5, 17] | Plant response rating, Barnyardgrass [6, 18] | Plant response rating, Barnyardgrass [6, 19] | Barnyardgrass plant response rating [6, 20] | Plant response rating, Barnyardgrass [6, 21] | Plant response rating, Sedge, Umbrella [7] | Plant response rating, Barnyardgrass [8] | Plant response rating, Ducksalad [9] | Plant response rating, Rice [10] | Plant response rating, Chickweed [1, 23] | Chickweed plant response rating [1, 24] | other results
CC(=O)Oc1c(C)nn(C)c(=O)c1-c1c(C)sc2ccc(C(F)(F)F)cc12 [Compound 132] | 90 | 95 | 85 | 95 | 40 | 90 | 30 | 50 | 80 | 100 | 0 | 30 | 0 | 70 | 0 | 0 | 0 | 0 |  |  | Chickweed plant response rating [1, 13]: 90; Chickweed plant response rating [1, 15]: 95; Kochia plant response rating [2, 13]: 90; Kochia plant response rating [2, 15]: 95; Oat, Wild plant response rating [3, 13]: 60; Oat, Wild plant response rating [3, 15]: 70
CCc1ccc2ccccc2c1-c1c(O)c(C)nn(C)c1=O [Compound 32] |  | 100 |  | 95 |  | 100 |  |  |  |  |  |  |  |  | 0 | 0 | 0 | 0 | 100 | 95 | Chickweed plant response rating [1, 22]: 90; Kochia plant response rating [2, 22]: 50; Plant response rating, Kochia [2, 23]: 90; Kochia plant response rating [2, 24]: 50; Oat, Wild plant response rating [3, 22]: 70; Plant response rating, Oat, Wild [3, 23]: 100; Oat, Wild plant response rating [3, 24]: 90; Blackgrass plant response rating ([4]; 1000 g ai/ha): 90; Galium plant response rating ([5]; 1000 g ai/ha): 100; Barnyardgrass plant response rating ([6]; Postemergence, 1000 g ai/ha, 0 to 100 scale, 0 is no effect, 100 is complete control): 90; Plant response rating, Barnyardgrass ([6]; Preemergence, 1000 g ai/ha, 0 to 100 scale, 0 no effect, 100 complete control): 100
CCC(=O)Oc1c(C)nn(C)c(=O)c1-c1ccc(F)c2ccccc12 [Compound 113] | 90 | 100 | 95 | 100 | 90 | 90 | 90 | 90 | 100 | 100 | 40 | 90 | 70 | 100 | 0 | 0 | 0 | 0 | 98 | 90 | Plant response rating, Kochia [2, 23]: 95; Plant response rating, Oat, Wild [3, 23]: 90
CCCC(=O)Oc1c(C)nn(C)c(=O)c1-c1c(C)sc2ccc(C)cc12 [Compound 105] | 90 | 100 | 95 | 100 | 60 | 90 | 80 |  | 100 | 100 | 50 |  | 20 | 100 |  |  |  |  | 98 | 95 | Plant response rating, Kochia [2, 23]: 95; Plant response rating, Oat, Wild [3, 23]: 90; Plant response rating, Waterhemp_RES1 ([11]; 16 g ai/ha, visual, scale 0 no effect to 100 complete control): 80; Plant response rating, Waterhemp_RES1 ([11]; 31 g ai/ha, visual, scale 0 no effect to 100 complete control): 80; Plant response rating, Waterhemp_RES1 ([11]; 125 g ai/ha, scale 0 to 100 (0 no effect, 100 complete control)): 100; Blackgrass plant response rating ([4]; 500 g ai/ha): 90; Barnyardgrass plant response rating [6, 25]: 90
Cc1nn(C)c(=O)c(-c2c(C)sc3c(C)cc(Cl)cc23)c1O [Compound 35] |  |  |  |  |  |  |  |  |  |  |  |  | 60 |  | 65 | 0 | 75 | 0 |  | 95 | Plant response rating, Chickweed [1, 26]: 90; Plant response rating, Chickweed [1, 27]: 90; Chickweed plant response rating [1, 22]: 95; Plant response rating, Kochia [2, 27]: 30; Kochia plant response rating [2, 22]: 30; Kochia plant response rating [2, 24]: 40; Plant response rating, Oat, Wild [3, 26]: 10; Plant response rating, Oat, Wild [3, 27]: 30; Oat, Wild plant response rating [3, 22]: 40; Oat, Wild plant response rating [3, 24]: 60; Plant response rating, Blackgrass [4, 28]: 70; Blackgrass plant response rating ([4]; 500 g ai/ha): 80; Plant response rating, Galium [5, 28]: 100; Galium plant response rating ([5]; 500 g ai/ha): 100; Plant response rating, Barnyardgrass ([6]; Postemergence, 125 g ai/ha, visual rating after approx. 10 d, 0 to 100 scale (0 no effect, 100 complete control)): 50; Barnyardgrass plant response rating [6, 25]: 90; Plant response rating, Barnyardgrass ([6]; Preemergence, 500 g ai/ha, 0 to 100 scale, 0 no effect, 100 complete control): 90
COC(=O)Oc1c(C)nn(C)c(=O)c1-c1ccc(F)c2ccccc12 [Compound 130] | 90 | 100 | 95 | 100 | 60 | 95 | 60 | 70 | 100 | 100 | 60 | 90 | 30 | 100 | 0 | 0 | 0 | 0 |  |  | Chickweed plant response rating [1, 13]: 95; Chickweed plant response rating [1, 15]: 98; Kochia plant response rating [2, 13]: 95; Kochia plant response rating [2, 15]: 100; Oat, Wild plant response rating [3, 13]: 80; Oat, Wild plant response rating [3, 15]: 85
